According to patent publication US20220133738A1, “GENOTYPE AND DOSE-DEPENDENT RESPONSE TO AN ASBTI IN PATIENTS WITH BILE SALT EXPORT PUMP DEFICIENCY” (MIRUM PHARMACEUTICALS, INC., priority 2019, published 2022):
Several values for one entry are separate records, joined by “and”; a condition that tells them apart may be missing. Equal entries are not always repeated.

Key:
[1] = tested on: overweight and obese adults; assay: Dose-ranging phase 1 clinical study (NCT02475317): fecal bile acid excretion with maralixibat and volixibat; format: in vivo, human; settings: for fBA excretion, mean change from baseline: baseline to day 6 and 7
[2] = tested on: children with Alagille syndrome (ALGS); assay: ICONIC phase 2b randomized placebo-controlled drug-withdrawal study with long-term extension of maralixibat in Alagille syndrome; settings: for C4, mean: baseline 7.4; for Serum cholesterol, mean: baseline 414.3; for ItchRO(Obs) Weekly Morning Average Score, Average Change from Baseline: week 48
Description: Children aged 1-18 years with a diagnosis of ALGS and evidence of cholestasis were eligible to enroll in the ICONIC clinical study, see Tables 12-14. During a long-term extension, participants with sBA levels above the upper limit of normal and/or an ITCHRO(OBS) score >1.5 were eligible for the 400 μg/kg BID dose (all participants received the 400 μg/kg BID dose). Inclusion criteria for the ICONIC study included having cholestasis, which was defined as at least one of 1) sBA concentration (total sBA) >3× the upper limit of normal, 2) serum conjugated bilirubin concentration >1 mg/dL, 3) fat-soluble vitamin deficiency not otherwise explained, 4) serum gamma-glutamyl transferase concentration >3× the upper limit of normal, and 3) intractable pruritus explainable only by liver disease. Inclusion criteria also included having significant pruritus, which was defined as an average daily score of >2 on the ITCHRO(OBS) scale for 2 consecutive weeks (0=no pruritus; 4=most severe pruritus). Exclusion criteria included having surgically disrupted enterohepatic circulation, a liver transplant, decompensated cirrhosis, or having any liver disease other than ALGS.
sBA responders were defined as those patients achieving ≥50% reduction from baseline in sBA at week 12 or 18. ITCHRO responders were defined as those patients achieving at least a 1-point reduction from Baseline in weekly morning ITCHRO(OBS) score at week 12 or 18.
In the open label extension, the effect of higher doses was explored by increasing dosage to a maximum of 400 μg/kg BID in eligible participants.
Efficacy assessments were based on changes from baseline in sBA concentration, weekly average ITCHRO(OBS) scores (0, none; 4, most severe), CSS score (0, none; 4 most severe), and Clinician Xanthoma Scale score (0, none; 4, disabling). […] During the long-term extension, efficacy assessments were conducted every 12 weeks.
sBA were measured using a fully validated liquid chromatography-electrospray ionization-mass electrospray (LC-ESI-MS) method using stable-isotope dilution analysis to measure serum concentrations of principal bile acids (cholic, chenodeoxycholic, ursodeoxycholic, deoxycholic acid, lithocholic, and their corresponding glycine and taurine conjugates). […] Calibration standards of individual bile acids were in the range of 50-25,000 ng/mL and Quality Control samples were prepared at concentrations of 100, 500, 1000, 2500, and 20000 ng/mL. The intra- and inter-assay imprecision of the method for individual bile acids measured was within the accepted GLP quality assurance guidelines of <15% coefficient of variance for these QC samples. The lower limit of quantification of the assay was set at 100 ng/mL and the imprecision at this concentration was <20%. The limit of detection of the assay was 5 ng/mL. Total sBA is represented by the sum of the individual bile acid species measured.

[3] = Withdrawal - Week 22, maralixibat group
[4] = individual subjects, one line per Subject ID of Table 18
[5] = individual subjects, one line per Subject ID of Table 19
[6] = sBA Normalization (<8.5 μmol/L)

## CCCCC1(CCCC)CS(=O)(=O)c2ccc(N(C)C)cc2[C@@H](c2ccc(OCc3ccc(C[N+]45CCN(CC4)CC5)cc3)cc2)[C@H]1O [maralixibat]
[1]; 10 mg dose (QD), 7 days
  fBA excretion, mean change from baseline: 515 µmol
[1]; 20 mg dose (QD), 7 days
  fBA excretion, mean change from baseline: 532 µmol
[1]; 50 mg BID, 7 days
  fBA excretion, mean change from baseline: 1251 µmol
[1]; 100 mg QD, 7 days
  fBA excretion, mean change from baseline: 1144 µmol
[1]; across tested doses, 7 days
  fBA excretion, dose dependence: increased in a dose-dependent manner
[1]; all doses, 7 days
  treatment-emergent adverse events: mild, and none were serious
[1]; baseline to day 7, greatest change at maralixibat 50 mg BID
  Mean serum 7αC4: increased
[1]; day 7 versus baseline
  Mean sBA levels: not elevated
[2]; 400 μg/kg BID relative to 400 μg/kg QD
  sBA, pruritus, and growth after the higher daily dose: further improvements
[2]; 400 μg/kg BID versus 400 μg/kg QD, FIGS. 35-36
  weight Z-scores: dose-dependent increase
[2]; ICONIC participants, FIGS. 33-34, SE 0.1
  Height Z-score, increase from baseline: 0.5
[2]; Open-label Week 18
  ItchRO (Obs) responders, Decrease from baseline ≥1: 67.7%
  ItchRO (Obs) responders, Decrease from baseline ≥1.25: 58.1%
  ItchRO (Obs) responders, Decrease from baseline ≥1.5: 51.6%
[2]; Open-label Week 48
  ItchRO (Obs) responders, Decrease from baseline ≥1: 72.4%
  ItchRO (Obs) responders, Decrease from baseline ≥1.25: 58.6%
  ItchRO (Obs) responders, Decrease from baseline ≥1.5: 51.7%
[2]; Week 48, n = 15
  C4, mean: 20.4 ng/mL
  Serum cholesterol, mean: 340.3 mg/dL
[2]; Week 191, n = 15
  C4, mean: 30.4 ng/mL
  Serum cholesterol, mean: 277.5 mg/dL
[2]; [3]
  ItchRO (Obs) responders, Decrease from baseline ≥1: 53.8%
  ItchRO (Obs) responders, Decrease from baseline ≥1.25: 46.2%
  ItchRO (Obs) responders, Decrease from baseline ≥1.5: 23.1%
[2]; after 98 weeks
  study days across participants with minimal or no pruritus (ITCHRO(OBS)≤1): over 89%
[2]; all participants by week 48 (p<0.01)
  Clinician xanthoma scale scores: improved significantly
[2]; at 191 weeks, long-term extension
  sBA levels, reduction from baseline: about 57%
[2]; at 191 weeks, SE 0.2
  ITCHRO(OBS) score, mean change from baseline: −2.5
[2]; at 191 weeks, SE 0.4
  CSS score, mean reduction: 2.4 points
[2]; at 193 weeks
  ITCHRO(OBS) final score: about 0.33
  ITCHRO(OBS) score, mean reduction: over 2 points
[2]; by week 48, all participants
  CSS scores, average decrease: over 1.5 points
[2]; by week 191, SE 0.3
  Clinician Xanthoma Score, reduction from baseline: 0.7 points
[2]; by week 193
  ITCHRO(OBS) scores, average decrease relative to baseline: over 1.5 points
[2]; core study and extension (p<0.01)
  PedsQL Multidimensional Fatigue Scale scores: Improvements
[2]; core study and extension, over three years
  tolerability: well tolerated
[2]; doses up, treatment duration up to 4 years
  tolerability: generally well tolerated
[2]; first 18 weeks, 400 μg/kg QD
  sBA concentration, decrease: 31%
[2]; first 18 weeks, 400 μg/kg QD, SE 0.2
  ITCHRO(OBS) scores, mean change from baseline: −1.7
[2]; [4]
  Change in ItchRO from Baseline to Week 48 (ITCHRO(OBS) weekly morning average score): −0.12 and 0.49 and −0.45 and 1.29 and −3.86 and 0.00 and −2.57 and −0.86 (2×) and −0.71 (2×) and −0.00 (2×) and −0.29 and −0.67 and −0.14 and −0.03 and −3.29 (2×) and −3.43 and −2.50 and −2.71 (2×) and −3.50 and −2.29 and −0.17 and −0.43 and −0.83
  Serum Bile Acid, Change from Baseline to Week 48: −56.4 μmol/L and −166.3 μmol/L and −281.4 μmol/L and 166.4 μmol/L and −121.1 μmol/L and 4.3 μmol/L (2×) and −251.0 μmol/L and 3.3 μmol/L and −27.3 μmol/L and −155.5 μmol/L and −240.2 μmol/L and 9.0 μmol/L and 143.1 μmol/L and −112.2 μmol/L and 16.4 μmol/L and −10.9 μmol/L and −16.9 μmol/L and 54.5 μmol/L and −620.4 μmol/L and −23.9 μmol/L and −377.3 μmol/L and −205.9 μmol/L and −270.4 μmol/L and 25.5 μmol/L and −203.6 μmol/L and −96.4 μmol/L and −33.9 μmol/L
  Serum Bile Acid, Week 48: 22.9 µmol/L and 131.8 µmol/L and 98.5 µmol/L and 578.1 µmol/L and 20.8 µmol/L and 333.0 µmol/L and 119.6 µmol/L and 117.7 µmol/L and 492.6 µmol/L and 427.9 µmol/L and 199.8 µmol/L and 29.2 µmol/L and 891.6 µmol/L and 163.4 µmol/L and 60.2 µmol/L and 12.0 µmol/L and 23.6 µmol/L and 126.1 µmol/L and 37.0 µmol/L and 7.0 µmol/L and 101.9 µmol/L and 293.3 µmol/L and 65.0 µmol/L and 110.9 µmol/L and 35.8 µmol/L and 208.0 µmol/L and 55.8 µmol/L and 15.6 µmol/L
[2]; [5]
  ItchRO(Obs) Weekly Morning Average Score, Change from Baseline to Week 48: −0.12 and 0.49 and −0.45 and 1.29 and −3.86 and 0.00 and −2.57 and −0.86 (2×) and −0.71 (2×) and −0.00 (2×) and −0.29 and −0.67 and −0.14 and −0.03 and −3.29 (2×) and −3.43 and −2.50 and −2.71 (2×) and −3.50 and −2.29 and −0.17 and −0.43 and −0.83
  ItchRO(Obs) Weekly Morning Average Score, Week 48: 2.71 and 3.20 and 1.83 and 3.71 and 0.14 and 1.86 and 0.71 and 1.14 (2×) and 0.29 (2×) and 2.00 (2×) and 1.71 (2×) and 1.00 and 1.40 and 0.00 (7×) and 1.43 and 1.57 and 3.50 and 2.17
[2]; randomized withdrawal (week 18-22), SE 48.0
  sBA levels, least squares mean difference maralixibat vs placebo: −114.0
[2]; randomized withdrawal, SE 0.3
  ITCHRO(OBS), LS mean difference maralixibat vs placebo: −1.5
[2]; [6]
  ItchRO(Obs) Weekly Morning Average Score, Week 48 Average Score: 0.00
  participants meeting sBA Response Definition, Week 48 (N = 28), %: (3.6%)
  ItchRO(Obs) Weekly Morning Average Score, Average Change from Baseline: −3.50
[2]; sBA ≥50% Reduction
  ItchRO(Obs) Weekly Morning Average Score, Week 48 Average Score: 1.07
  participants meeting sBA Response Definition, Week 48 (N = 28), %: (46.4%)
  ItchRO(Obs) Weekly Morning Average Score, Average Change from Baseline: −1.86
[2]; sBA ≥60% Reduction
  ItchRO(Obs) Weekly Morning Average Score, Week 48 Average Score: 0.82
  participants meeting sBA Response Definition, Week 48 (N = 28), %: (39.3%)
  ItchRO(Obs) Weekly Morning Average Score, Average Change from Baseline: −2.12
[2]; sBA ≥70% Reduction
  ItchRO(Obs) Weekly Morning Average Score, Week 48 Average Score: 0.62
  participants meeting sBA Response Definition, Week 48 (N = 28), %: (28.6%)
  ItchRO(Obs) Weekly Morning Average Score, Average Change from Baseline: −2.31
[2]; sBA ≥80% Reduction
  ItchRO(Obs) Weekly Morning Average Score, Week 48 Average Score: 0.11
  participants meeting sBA Response Definition, Week 48 (N = 28), %: (14.3%)
  ItchRO(Obs) Weekly Morning Average Score, Average Change from Baseline: −2.79
